Reference: US11246856B2, “Methods of treating resistant cancers” (University of Maryland, Baltimore, priority 2017, dated 2022)
Entries after “also recorded” stand apart in the source; their conditions may differ.

Experiments:
[1] = system: A375 spheroid cell-derived tumors; assay: Tumor xenograft assay, A375 spheroid cell-derived tumors; type: in vivo, NSG mice
Procedure: (§1) Cells were grown for ten days as spheroids and a single cell suspension, prepared by trypsin digestion, was resuspended in phosphate buffered saline containing 30% Matrigel and 100 μl containing 0.1 million cells were injected subcutaneously at the two front flanks of NOD/scid/IL2 receptor gamma-knockout mice (NSG mice) using a 26.5 gauge needle. PLX4032 was dissolved in phosphate-buffered saline containing 10% DMSO and delivered at 20 mg/kg by oral gavage in […] three times per week (M/W/F). Verteporfin was dissolved in phosphate-buffered saline containing 10% DMSO and 0-100 mg/kg was delivered by intraperitoneal injection of […] three times per week (M/W/F). Five mice were used per group (two tumors per mouse) and treatment was initiated two days after tumor cell injection. Tumor growth was monitored by measuring tumor diameter and calculating tumor volume using the formula, volume=4/3π×(diameter/2)^3. Mice were euthanized by injection of 250 μl of a 2.5% stock of Avertin per mouse followed by cervical dislocation of the neck. Tumor samples were harvested to prepare extract for immunoblot and sections for immunostaining. These experiments were reviewed and approved by the University of Maryland-Baltimore Institutional Animal Care and Use Committee. The plotted values are mean±SEM and significance were determined using the students t-test.

A375 cells [2] = assay: Immunoblot of signaling, cell cycle and apoptosis markers in A375 cells; type: cell-based
Procedure: (§2) Equivalent amounts of protein were electrophoresed on denaturing and reducing 10% polyacrylamide gels and transferred to nitrocellulose membrane. The membrane was blocked by 5% nonfat dry milk for one hour and incubated with 1:1000 primary antibody in 5% nonfat dry milk. Blots were rinsed in TBS-T and then incubated with secondary antibodies (1:5000) for 2 h. Secondary antibody binding was visualized using ECL Prime (Amersham) chemiluminescence detection technology. For immunostaining, cells were harvested, suspended in growth medium, and plated in LAB-TEK II Chamber Slide System. After 24 h, the cells were fixed with 4% paraformaldehyde at room temperature for 15 min, washed three with phosphate-buffered saline, in 0.1% Triton X-100 for 15 min, washed with phosphate-buffered saline, and blocked for 1 h with phosphate-buffered saline containing 7.5% fetal calf serum. Primary antibodies were added, and the slides incubated overnight at 4° C. Cells were then washed three times with phosphate-buffered saline and incubated 1 h with the appropriate Alexa Flour fluorescence probe-conjugated secondary antibody. After additional washing, the cells were stained with DAPI for 10 min prior to imaging.

A375 cells [3] = assay: Immunofluorescence of YAP1/TAZ subcellular distribution; type: cell-based; conditions: control versus PLX4032-treated A375 cells, FIG. 2D
Procedure: as §2

[4] = system: tumor-derived A375-PLX-R cells; assay: Matrigel invasion of tumor-derived A375-PLX-R cells; type: cell-based; conditions: resistant (A375-PLX-R) cells, invasion assayed without drug, FIG. 6G
Procedure: (§3) Tumors were initiated and treated with PLX4032 or verteporfin as above. At 4 weeks, the tumors were removed, mechanically dissociated and dispersed as single cell suspensions with 0.25% trypsin for 10 min and plated as monolayer cultures. After 24 h, the cells were harvested and seeded at 25,000 cells/well atop a 0.1 ml matrigel layer in Millicell (1 cm diameter, […]) chambers in the presence of a serum gradient (38). After 18 h, the membranes were stained with DAPI and the nuclei of migrated cells were visualized by inverted fluorescence microscopy (38).

A375-PLX-R cells [5] = assay: Cell proliferation, PLX4032-resistant A375-PLX-R cells; type: cell-based; conditions: FIG. 1A
Procedure: A375, SK-MEL-5 and SK-MEL-28 cell lines were maintained in DMEM growth medium containing 10% FCS, 2 mM L-glutamine and 1 mM sodium pyruvate. The WM3248 cells were maintained in MCDB153:L15 (4:1) growth medium containing 2% FCS, […] insulin and 1.68 mM CaCl2. To create PLX4032-resistant cells, A375, SK-MEL-5, SK-MEL-28 and WM3248 cells were treated with […] in monolayer culture in growth medium for several weeks. The surviving cells were then expanded and cultured in increasing doses of PLX4032 up to […]. The resulting PLX4032-resistant cells, designated PLX4032-resistant (e.g., A375-PLX-R) were routinely maintained in the presence of […] PLX4032.

tumor-derived A375 cells = assay: Matrigel invasion of tumor-derived A375 cells; type: cell-based; conditions: sensitive (A375) cells, invasion assayed without drug, FIG. 6G
Procedure: as §3

A375-PLX-R cells [6] = assay: Immunoblot of ERK1/2 activity in A375-PLX-R cells; type: cell-based; conditions: TEAD intact versus knockdown, FIG. 3F
Procedure: as §2

[7] = system: melanoma cell tumor formation (MCS cells); assay: Tumor xenograft assay, verteporfin alone (FIGS. 6D-6F); type: in vivo, NSG mice; conditions: verteporfin intraperitoneal, tumor cell line not stated
Procedure: as §1

[8] = system: YAP1, TAZ and TEAD in A375 and A375-PLX-R cells; assay: YAP1/TAZ/TEAD mRNA and protein level after verteporfin, monolayer cells; type: cell-based
Procedure: as §2
Total RNA was isolated using Illustra RNAspin mini kit (GE Healthcare), and 1 μg of RNA was used for cDNA synthesis. Gene expression was measured by real time PCR using Light Cycler 480 SYBR Green I Master Mix (04-707 516 001) from Roche Diagnostics (Indianapolis, Ind.). The signals were normalized using cyclophilin A control primers. The gene specific primers used for detection of mRNA levels were as follows: cyclophilin A (forward, 5′-[…] (SEQ ID NO: 3); reverse, 5′-[…] (SEQ ID NO: 4)), TAZ (forward, 5′-GTATCCCAGCCAATC TCG (SEQ ID NO: 5); reverse, 5′-TTCTGAGTGGGGTGGTTC (SEQ ID NO: 6)) and YAP1 (forward, 5′-[…] (SEQ ID NO: 7); reverse, 5′-[…], (SEQ ID NO: 8)) (11).
To understand the mechanism of verteporfin action, monolayer A375 and A375-PLX-R cells were treated with […] verteporfin for 24 h and the impact on YAP1/TAZ mRNA and protein level was monitored. […] The proteasome is known to regulate YAP1/TAZ level (29,30) and so whether the proteasome was responsible for the observed reductions was examined.

tumor-derived cells = assay: Matrigel invasion of cells from verteporfin-treated tumors; type: cell-based; conditions: FIG. 6H
Procedure: as §3

Row | Compound | tumor growth ([1]; PLX4032 20 mg/kg oral gavage three times per week, FIG. 6B) | p21Cip1 level in tumors ([1]; PLX4032-treated A375 tumors, FIG. 6C) | apoptosis (cleaved PARP accumulation, procaspase 8 and 9 levels) (A375 cells [2]) | cyclin B and cyclin A level (A375 cells [2]; FIGS. 3A-3B) | p21Cip1 and p27 level (A375 cells [2]; FIGS. 3A-3B) | ERK1/2 signaling / phosphorylation (A375 cells [2]; FIGS. 3A-3B, 3F) | YAP1 intracellular distribution (A375 cells [3]) | matrigel invasion of tumor-derived cells after in vivo treatment [4] | proliferation of A375-PLX-R cells (A375-PLX-R cells [5]) | matrigel invasion of tumor-derived cells after in vivo treatment (tumor-derived A375 cells) | ERK1/2 activity (A375-PLX-R cells [6]) | YAP1 and TAZ level in tumors ([7]; FIG. 6F) | tumor size / tumor formation ([7]; FIGS. 6D-6E) | level of YAP1 or TAZ mRNA ([8]; 1 mM verteporfin, 24 h, monolayer, FIG. 4F) | YAP1 and TAZ protein levels ([8]; 1 mM verteporfin, 24 h, monolayer, FIG. 4G) | TEAD transcription factor levels ([8]; verteporfin treatment, FIG. 4H) | matrigel invasion of tumor-derived cells after in vivo treatment (tumor-derived cells)
1 | CCCS(=O)(=O)Nc1ccc(F)c(C(=O)c2c[nH]c3ncc(-c4ccc(Cl)cc4)cc23)c1F [PLX4032] | suppressed | slightly elevated | enhances | reduced | increased | suppressed; also recorded: reduced | no major change | does not suppress | not suppressed | does not suppress | only reduced in A375-PLX-R cells following TEAD knockdown and PLX4032 treatment | – | – | – | – | – | –
2 | verteporfin | – | – | – | – | – | – | – | – | – | – | – | suppressed | reduced | did not impact | reduced | reduced | reduced
